Experimental data taken from ChEMBL document CHEMBL5120801, “Targeting Bromodomain-Selective Inhibitors of BET Proteins in Drug Discovery and Development” (J Med Chem, 2022).
Each block holds one molecule with its values, some of them ahead of it.

How the values were obtained:
[1] = molecular target: T1, Bromodomain-containing protein 4 (Homo sapiens, UniProt O60885); assay: Binding affinity to BRD4-BD1 (unknown origin)
[2] = molecular target: T1, Bromodomain-containing protein 4; assay: Binding affinity to BRD4-BD2 (unknown origin)
Interleukin-1 beta = molecular target: T2, Interleukin-1 beta (Mus musculus, UniProt P10749); assay: Inhibition of IL-1beta in mouse BMDM cells; assay type: cell-based
T2 sequence (P10749 whole entry): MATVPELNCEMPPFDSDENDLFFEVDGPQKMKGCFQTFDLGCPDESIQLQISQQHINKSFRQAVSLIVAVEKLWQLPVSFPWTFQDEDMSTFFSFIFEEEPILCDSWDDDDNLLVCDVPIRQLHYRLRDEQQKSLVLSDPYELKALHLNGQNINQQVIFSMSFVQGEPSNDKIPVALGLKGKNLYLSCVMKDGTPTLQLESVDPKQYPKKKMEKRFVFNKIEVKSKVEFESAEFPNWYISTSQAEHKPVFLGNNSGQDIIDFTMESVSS

MV4-11 [3] = assay: Antiproliferative activity against human MV4-11 cells by CCK-8 assay; assay type: functional, cell-based
MV4-11 [4] = assay: Antiproliferative activity against human MV4-11 cells by Cell Titer Glo assay; assay type: functional, cell-based

Ki [1]: 79 nM | Ki [2]: 1.3 nM
Compound: CCNC(=O)C1=CC2C(c3cc(S(=O)(=O)CC)ccc3Oc3c(C)cc(F)cc3C)=CN(C)C(=O)C2N1 (stereo not given)

IC50 (Interleukin-1 beta): 2100 nM
Compound: COc1cc(OC)c2c(=O)[nH]c(-c3cc(C)c(OCCN4CCCC4)c(C)c3)nc2c1

IC50 (MV4-11 [3]): 30200 nM
Compound: O=c1cc(-c2ccc(O)c(O)c2)oc2c(O)c(O)ccc12

IC50 (MV4-11 [4]): 8 nM
Compound: CC(=O)N1c2ccc(-c3cc[nH]n3)cc2[C@H](Nc2ccc(C#N)cc2)C[C@@H]1C
